Results: patent US20020169175A1, “Pharmaceutically acceptable salts of heterocyclic compounds” (DR. REDDY'S LABORATORIES LTD., priority 2001, published 2002)
Where a name gives a salt, the structure may show the parent alone.

Key:
[1] = tested on: Swiss albino mice; assay: Plasma triglyceride and total cholesterol lowering activity in Swiss albino mice and Guinea pigs; type: in vivo, mouse; conditions: oral, 6 days
Description: c) Plasma Triglyceride and Total Cholesterol Lowering Activity in Swiss Albino Mice and Guinea Pigs
Male Swiss albino mice (SAM) and male Guinea pigs were obtained from NIN and housed in DRF animal house. All these animals were maintained under 12 hour light and dark cycle at 25±1° C. Animals were given standard laboratory chow (NIN Hyderabad, India) and water, ad libitum. SAM of 20-25 g body weight range and Guinea pigs of 500-700 g body weight range were used (Oliver, P., Plancke, M. O., Marzin, D., Clavey, V., Sauzieres, J and Fruchart, J. C. Effects of fenofibrate, gemfibrozil and nicotinic acid on plasma lipoprotein levels in normal and hyperlipidemic mice. Atherosclerosis. 1988. 70: 107-114).
The test compounds were administered orally to Swiss albino mice at 0.3 to 30 mg/kg/day dose for 6 days. Control mice were treated with vehicle (0.25% Carboxymethylcellulose; dose 10 ml/kg). The test compounds were administered orally to Guinea pigs at 0.3 to 30 mg/kg/day dose for 6 days. Control animals were treated with vehicle (0.25% Carboxymethylcellulose; dose 5 ml/kg).
The blood samples were collected in fed state 1 hour after drug administration on 0 and 6 day of treatment. The blood was collected from the retro-orbital sinus through heparinised capillary in EDTA containing tubes. After centrifugation, plasma sample was separated for triglyceride and total cholesterol (Wieland, O. Methods of Enzymatic analysis. Bergermeyer, H. O., Ed., 1963. 211-214; Trinder, P. Ann. Clin. Biochem. 1969. 6: 24-27). Measurement of plasma triglyceride, total cholesterol and HDL were done using commercial kits (Dr. Reddy's Diagnostic Division, Hyderabad, India).
1. Percent reduction in Blood sugar/triglycerides/total cholesterol were calculated according to the formula: [formula]

[2] = Single dose oral pharmacokinetic studies in male Wistar rats; type: in vivo, rat; conditions: fasted, suspension in 0.25% sodium CMC
Description: Single Dose Oral Pharmacokinetic Studies
Male Wistar rats (220-250 gm) were used in the experiments. The animals were maintained under standard laboratory conditions and had free access to feed and water ad libitum. Before experimentation animals were fasted overnight (˜15 h) during which they had free access to water ad libitum.
An amount equivalent to 30 mg of drug was weighed accurately and transferred into a clean mortar and triturated to obtain a fine powder. To this 0.5 ml of 0.25% sodium carboxy methyl cellulose (sodium CMC) was added to obtain a paste. To the obtained paste remaining 2.5 ml of sodium CMC was added to make up the volume to 3 ml. Based on the animal weight appropriate volume (body weight×3) of the prepared suspension was administered through oral gavage.
After dosing, at designated time points (0.5, 1, 2, 3, 5, 8, 12 and 24 h) 200 μl of blood was collected from retro orbital plexus into 0.5 ml eppendorff tubes containing EDTA (10 μl of 200 mg/ml solution in Milli Q water). Blood was centrifuged at 12,800 rpm for 5 min and obtained plasma and stored at −20° C. till further analysis.
100μl plasma was transferred into a clean and dry centrifuge tube. To this internal standard (10 μl of 100 μg/ml) was added and extracted with 2 ml of extraction recovery solvent. The contents were vortexed for 2 min, followed by centrifugation for 10 min at 2800 rpm. Clear organic layer (2×0.75 ml) was separated and dried under nitrogen gas at 50° C. The residue was reconstituted with 150 μl of mobile phase and vortexed for 20 sec, from this 50 μl was injected onto HPLC column.
Pharmacokinetic parameters were calculated by non-compartmental model analysis. The peak plasma concentration (Cmax) and the corresponding time (Tmax)were directly obtained from the raw data. The area under the plasma concentration versus time curve up to the last quantifiable time point, AUC(0−t) was obtained by the linear and log-linear trapezoidal summation. The AUC(0−t) extrapolated to infinity (i.e., AUC(0−∞)) by adding the quotient of Clast/Kel, where Clast represents the last measurable time concentration and Kel represents the apparent terminal rate constant. Kel was calculated by the linear regression of the log-transformed concentrations of the drug in the terminal phase. The half-life of the terminal elimination phase was obtained using the relationship t½=0.693/Kel.

[3] = target: T1, hPPARα (Homo sapiens, UniProt Q07869); assay: Determination of hPPARα activity (GAL4 fusion luciferase reporter in transfected HEK-293 cells); type: cell-based; conditions: compound concentration 50 μM
T1 construct: expressed in transfected cells; host or cells: HEK-293
T1 sequence (Q07869 239-466 limits assumed): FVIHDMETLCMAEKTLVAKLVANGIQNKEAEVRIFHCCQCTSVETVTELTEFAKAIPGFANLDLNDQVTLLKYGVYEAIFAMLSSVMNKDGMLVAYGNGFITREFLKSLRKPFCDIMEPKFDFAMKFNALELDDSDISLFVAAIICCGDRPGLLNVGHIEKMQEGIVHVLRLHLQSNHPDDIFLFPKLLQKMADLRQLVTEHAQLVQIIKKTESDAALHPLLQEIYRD
Description: a) Determination of hPPARα Activity
Ligand binding domain of hPPARα was fused to DNA binding domain of Yeast transcription factor GAL4 in eucaryotic expression vector. Using superfect (Qiagen, Germany) as transfecting reagent HEK-293 cells were transfected with this plasmid and a reporter plasmid harboring the luciferase gene driven by a GAL4 specific promoter. Compound was added at different concentrations after 42 hrs of transfection and incubated overnight. Luciferase activity as a function of compound binding/activation capacity of PPARα was measured using Packard Luclite kit (Packard, USA) in Top Count (Ivan Sadowski, Brendan Bell, Peter Broag and Melvyn Hollis. Gene. 1992. 118: 137-141; Superfect Transfection Reagent Handbook. February 1997. Qiagen, Germany).

[4] = target: T2, hPPARγ1 (Homo sapiens, UniProt P37231); assay: Determination of hPPARγ activity (GAL4 fusion luciferase reporter in transfected HEK-293 cells); type: cell-based; conditions: compound concentration 1 μM
T2 construct: expressed in transfected cells; host or cells: HEK-293
T2 sequence (P37231 238-503 limits assumed): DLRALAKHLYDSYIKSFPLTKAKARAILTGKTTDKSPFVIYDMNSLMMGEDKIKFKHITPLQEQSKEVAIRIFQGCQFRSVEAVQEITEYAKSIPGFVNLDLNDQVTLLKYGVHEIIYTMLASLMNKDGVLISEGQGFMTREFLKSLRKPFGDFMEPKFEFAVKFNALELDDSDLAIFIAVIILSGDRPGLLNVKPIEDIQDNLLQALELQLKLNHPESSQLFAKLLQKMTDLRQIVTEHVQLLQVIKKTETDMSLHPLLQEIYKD
Description: b) Determination of hPPARγ Activity
Ligand binding domain of hPPARγ1 was fused to DNA binding domain of Yeast transcription factor GAL4 in eucaryotic expression vector. Using lipofectamine (Gibco BRL, USA) as transfecting reagent HEK-293 cells were transfected with this plasmid and a reporter plasmid harboring the luciferase gene driven by a GAL4 specific promoter. Compound was added at 1 μM concentration after 48 hrs of transfection and incubated overnight. Luciferase activity as a function of drug binding/activation capacity of PPARγ1 was measured using Packard Luclite kit (Packard, USA) in Packard Top Count (Ivan Sadowski, Brendan Bell, Peter Broag and Melvyn Hollis. Gene. 1992. 118: 137-141; Guide to Eukaryotic Transfections with Cationic Lipid Reagents. Life Technologies, GIBCO BRL, USA).

In the case of `CCCc1nn(C)c2c(=O)n(CCOc3ccc(CC(OCC)C(=O)[O-])cc3)c(CC)nc12.CCCc1nn(C)c2c(=O)n(CCOc3ccc(CC(OCC)C(=O)[O-])cc3)c(CC)nc12.[Mg+2]` (single isomer, unassigned; (-)) [Example 31, (−)-3-[4-[2-(1-Methyl-5-ethyl-7-oxo-3-propyl-6,7-dihydro-1H-pyrazolo[4,3-d]pyrimidin-6-yl)ethoxy]phenyl]-2-ethoxypropionic acid magnesium salt], the “Triglyceride Lowering (%)” value ([1]; dose 3 mg/kg) is reported as 84%, the “AUC (0-∞)” value [2] is reported as 65930 ng·h/mL and the “AUC(0-t)” value [2] is reported as 64700 ng·h/mL. For the same compound, the Cmax [2] was 19150 ng/mL, the Kel [2] was 0.34 h⁻¹ and the Tmax [2] was 2.75 h. The t½ [2] was 2.24 h.

For `CCO[C@@H](Cc1ccc(OCCn2c(CC)nc3ccccc3c2=O)cc1)C(=O)O` [Example 1, (−)-3-[4-[2-(2-Ethyl-4-oxo-3,4-dihydroquinazolin-3-yl)ethoxy]phenyl]-2-ethoxypropanoic acid phenyl glycinol salt], the “Triglyceride Lowering (%)” value ([1]; dose 3 mg/kg) was 87%.

For `CCO[C@@H](Cc1ccc(OCCn2c(CC)nc3ccccc3c2=O)cc1)C(=O)O` [Example 3, (−)-3-[4-[2-(2-Ethyl-4-oxo-3,4-dihydroquinazolin-3-yl)ethoxy]phenyl]-2-ethoxypropanoic acid dicyclohexylamine salt], the “Triglyceride Lowering (%)” value ([1]; dose 3 mg/kg) was 81%.

With `CCO[C@@H](Cc1ccc(OCCn2c(N=[N+]=[N-])nc3ccccc3c2=O)cc1)C(=O)O` [Example 12, (−)-3-[4-[2-(2-Azido-4-oxo-3,4-dihydroquinazolin-3-yl)ethoxy]phenyl]-2-ethoxypropanoic acid magnesium salt] the “Triglyceride Lowering (%)” value ([1]; dose 0.3 mg/kg) was 37%.

Work on `CCCc1nn(C)c2c(=O)n(CCOc3ccc(CC(OCC)C(=O)[O-])cc3)c(C)nc12.CCCc1nn(C)c2c(=O)n(CCOc3ccc(CC(OCC)C(=O)[O-])cc3)c(C)nc12.[Mg+2]` (stereo not drawn) [Example 16, 3-[4-[2-(1,5-Dimethyl-7-oxo-3-propyl-6,7-dihydro-1H-pyrazolo[4,3-d]pyrimidin-6-yl)ethoxy]phenyl]-2-ethoxypropionic acid magnesium salt] yielded a PPARα [3] of 3.4 and a PPARγ [4] of 13.5.

Work on `CCCc1nn(C)c2c(=O)n(CCOc3ccc(C[C@H](OCC)C(=O)[O-])cc3)c(C)nc12.[Na+]` [Example 20, 3-[4-[2-(1,5-Dimethyl-7-oxo-3-propyl-6,7-dihydro-1H-pyrazolo[4,3-d]pyrimidin-6-yl)ethoxy]phenyl]-2-ethoxypropionic acid sodium salt] yielded a PPARα [3] of 3.5 and a PPARγ [4] of 13.0.

`CCCc1nn(C)c2c(=O)n(CCOc3ccc(C[C@H](OCC)C(=O)O)cc3)c(C)nc12` [Example 23, 3-[4-[2-(1,5-Dimethyl-7-oxo-3-propyl-6,7-dihydro-1H-pyrazolo[4,3-d]pyrimidin-6-yl)ethoxy]phenyl]-2-ethoxypropionic acid S-(+)-phenylglycinol salt] gave a PPARα [3] of 3.4 and a PPARγ [4] of 11.5.

For `CCCc1nn(C)c2c(=O)n(CCOc3ccc(C[C@H](OCC)C(=O)O)cc3)c(CC)nc12` [Example 36, (−)-3-[4-[2-(1-Methyl-5-ethyl-7-oxo-3-propyl-6,7-dihydro-1H-pyrazolo[4,3-d]pyrimidin-6-yl)ethoxy]phenyl]-2-ethoxypropionic acid arginine salt], the PPARγ [4] was 11.4.

`CCCc1nn(C)c2c(=O)n(CCOc3ccc(C[C@H](OCC)C(=O)O)cc3)c(CC)nc12` [Example 38, (−)-3-[4-[2-(1-Methyl-5-ethyl-7-oxo-3-propyl-6,7-dihydro-1H-pyrazolo[4,3-d]pyrimidin-6-yl)ethoxy]phenyl]-2-ethoxypropionic acid S-(+)-phenylglycinol salt] showed a PPARα [3] of 3.3 and a PPARγ [4] of 12.0.

`CCCc1nn(C)c2c(=O)n(CCOc3ccc(C[C@H](OCC)C(=O)O)cc3)c(CC)nc12` [Example 41, (−)-3-[4-[2-(1-Methyl-5-ethyl-7-oxo-3-propyl-6,7-dihydro-1H-pyrazolo[4,3-d]pyrimidin-6-yl)ethoxy]phenyl]-2-ethoxypropionic acid dicyclohexylamine salt] showed a PPARα [3] of 3.1 and a PPARγ [4] of 13.0.

In the case of `CCCc1nn(C)c2c(=O)n(CCOc3ccc(C[C@H](OCC)C(=O)O)cc3)c(CC)nc12` [Example 44, (−)-3-[4-[2-(1-Methyl-5-ethyl-7-oxo-3-propyl-6,7-dihydro-1H-pyrazolo[4,3-d]pyrimidin-6-yl)ethoxy]phenyl]-2-ethoxypropionic acid metformin salt], the PPARα [3] is reported as 2.5 and the “Triglyceride Lowering (%)” value ([1]; dose 3 mg/kg) is reported as 80%.

For `CCCc1nn(C)c2c(=O)n(CCOc3ccc(C[C@H](OCC)C(=O)O)cc3)c(CC)nc12` [Example 45, (−)-3-[4-[2-(1-Methyl-5-ethyl-7-oxo-3-propyl-6,7-dihydro-1H-pyrazolo[4,3-d]pyrimidin-6-yl)ethoxy]phenyl]-2-ethoxypropionic acid Lysine salt], the “Triglyceride Lowering (%)” value ([1]; dose 3 mg/kg) was 81%, the “AUC (0-∞)” value [2] was 101290 ng·h/mL and the “AUC(0-t)” value [2] was 99330 ng·h/mL. The Cmax [2] was 24220 ng/mL, the Kel [2] was 0.42 h⁻¹ and the Tmax [2] was 2.38 h. It also gave a t½ [2] of 1.72 h.
